Tests used:
[1] = system: adhesion of intestinal epithelial cells (HT-29) and monocytic cells (U937) induced by TNF-α; test: Inhibition of TNF-α-induced adhesion of monocytes and intestinal epithelial cells; type: cell-based, human; details: Homo sapiens; for inhibition at 1 µM: test drug 1 μM, TNF-α 10 ng/mL, HT-29/U937, read-out: Inhibitory activity (%)
Protocol: HT-29 human colon cancer-derived epithelial cells and U937 human-derived monocytes were cultured in RPMI 1640 medium containing 10% FBS and 1% penicillin/streptomycin (PS) in a 37° C., 5% CO2 incubator. When the cells grew more than 80% of the bottom area of the culture flask, they were passaged at a ratio of 1:3 and used in this experiment. HT-29 cells were cultured in a 24-well plate at the density of 2×10^5 cells/cm^2, and the test drug was pretreated in a medium containing 1% FBS and 1% PS for 1 hour. Thereafter, 10 μg/mL of BCECF-AM was treated thereto and reacted at 37° C. for 30 minutes. U937 cells loaded with BCECF and TNF-α (10 ng/mL) were reacted with HT-29 cells previously treated with the test drug at 37° C. for 3 hours. Upon completion of the reaction, the medium was removed, and the culture flask was washed twice with PBS to remove non-adherent U937 cells. In the next step, the cells were lysed by treating with 0.1% Triton X-100 (0.1 M Tris) and reacted at room temperature for 30 minutes. Then, fluorescence was measured and quantified using a fluostar optima microplate reader (BMG Labtechnologies, Germany) (Carvalho et al., 1996; Thapa et al., 2008).

[2] = system: adhesion of intestinal epithelial cells (HT-29) and monocytic cells (U937) induced by IL-6; test: Inhibition of IL-6-induced adhesion of monocytes and intestinal epithelial cells; type: cell-based, human; details: Homo sapiens, 3 h; test drug 1 μM; IL-6 10 ng/mL; HT-29/U937; read-out: inhibitory activity (%)
Protocol: The inhibitory activity test for intestinal epithelial cell-monocyte adhesion by IL-6 was performed using the same method as in the case of TNF-α. HT-29 cells were cultured in a 24-well plate at the density of 2×10^5 cells/cm^2, and the test drug was pretreated in a medium containing 1% FBS and 1% PS for 1 hour. Thereafter, 10 μg/mL of BCECF-AM was treated thereto and reacted at 37° C. for 30 minutes. U937 cells loaded with BCECF and IL-6 (10 ng/mL) were reacted with HT-29 cells previously treated with the test drug at 37° C. for 3 hours. Upon completion of the reaction, the medium was removed, and the culture flask was washed twice with PBS to remove non-adherent U937 cells. In the next step, the cells were lysed by treating with 0.1% Triton X-100 (0.1 M Tris) and reacted at room temperature for 30 minutes. Then, fluorescence was measured and quantified using a fluostar optima microplate reader (BMG Labtechnologies, Germany).

[3] = system: TNBS-induced inflammatory bowel disease rat model; test: Oral efficacy in TNBS-induced inflammatory bowel disease rat model; type: in vivo, Sprague Dawley rats
Protocol: Sprague Dawley rats aged 7-8 weeks were purchased from OrientBio (Korea), stabilized with general solid feed for 3 days, and then used in this experiment. Feed and water were freely supplied during the experiment period, and the temperature of the breeding room was maintained at 25±1° C. and the relative humidity at 50±10%. Lighting management was controlled in a 12-hour light-dark cycle by an automatic lighting controller.
After anesthetizing rats that had been fasted for 24 hours with diethyl ether, 0.8 mL of 5% TNBS diluted with 50v/v % ethanol was slowly injected into the lumen of the colon using a 1 mL syringe connected to a polyethylene catheter, and then, the rats were left standing for 60 seconds in an inverted position in order to prevent 5% TNBS from leaking into the anus. For the control group, only vehicle [50v/v % ethanol] was injected in the same manner as in the other groups (Thapa et al., 2008).
In order to investigate the effect of the drug, the drug was administered at a constant time every day for 5 days from the day after the TNBS treatment.
Changes in body weight of each rat were observed from the fasting stage to the TNBS administration and drug administration process using a digital mass meter.
The colon of the rat was extracted, and the tissue 5-6 cm away from the anus was cut into a length of 1 cm, and the weight of the tissue was measured.
The weighed rat tissues were fixed with 4% paraformaldehyde solution, and then transferred to 30% sucrose solution. When the tissues subside, they were taken out and cut into […] thick using a cryomicrotome (Microm HM 450, Thermo Fisher Scientific, Germany) and stored in a cryopreservation solution. After washing the tissue section with KPBS, the tissue section was attached to a slide glass, dried, and then stained with hematoxylin & Eosin and observed under a microscope.

[4] = system: DSS-induced chronic enteritis mouse model; test: Oral efficacy in DSS-induced chronic enteritis mouse model; type: in vivo, C57BL/6 mice; details: for Body weight recovery rate (%) / Intestinal weight recovery rate (%): chronic enteritis (DSS-water-DSS, total 35 days), mouse
Protocol: (§1) C57BL/6 mice aged 7-8 weeks were purchased from OrientBio (Korea), stabilized with general solid feed for 7 days, and then used in this experiment. Feed and water were freely supplied during the experiment period, and the temperature of the breeding room was maintained at 25±1° C. and the relative humidity at 50±10%. Lighting management was controlled in a 12-hour light-dark cycle by an automatic lighting controller.
(§2) Enteritis was induced in mice by allowing them to freely ingest drinking water containing 2% DSS salt (M.W. 36,000˜50,000, MP Biomedicals, LLC, OH, USA). For the chronic enteritis model, DSS was administered using a schedule of DSS administration for the first 7 days, administration of normal drinking water for 14 days, repeated administration of DSS for 7 days from the 21st day, and administration of normal drinking water for 7 days. The drug was administered once a day, 6 days a week from the first day of DSS treatment (FIG. 2A). […] In order to measure the dose-dependent therapeutic effect of the drug in the acute enteritis model, DSS was administered for 5 days to induce enteritis, and then the drug was administered for 14 days to measure the degree of recovery and treatment of enteritis (FIG. 3A). The drug was administered orally once daily for […] at a fixed time.
(§3) Changes in body weight of each mouse were observed during the DSS and drug administration using a digital mass meter.
(§4) The colon of the mouse was extracted, and the length and weight from the anus to the cecum were measured.
(§5) Tissue staining was performed in the same manner as in the case of hematoxylin/eosin staining of the rat colon tissue, and scoring indexes of mucosal damage and recovery were applied in the same way.

[5] = system: DSS-induced acute enteritis mouse model; test: Oral efficacy in DSS-induced acute enteritis mouse model; type: in vivo, C57BL/6 mice; details: acute enteritis (DSS), mouse, 300 mg/kg
Protocol: as §1, §2, §3, §4
The degree of neutrophil infiltration in the tissue was measured by the amount of MPO, a neutrophil marker enzyme. The colon tissue with a size of 1 cm was washed with cold PBS and weighed, to which a lysis buffer (pH7.4, 200 mM NaCl, 5 mM EDTA, 10 mM tris, 10% glycerin, 1 mM PMSF, 1 μg/mL leupeptin and 28 μg/mL aprotinin) was added (500 μL of per 10 mg of tissue weight), and then homogenized using Bead Blaster® D2400 homogenizer (Benchmark Scientific, NJ, USA). […] (HK210, Hycult Biotechnology, Netherlands). The supernatant was added to a 96 well plate (100 μL/well) coated with an anti-mouse MPO antibody, and incubated for 1 hour at room temperature, followed by washing 3 times with a washing buffer. A reconstituted tracer was added to the plate (100 μL/well), which was reacted at room temperature for 1 hour, washed 3 times, and then 100 μL of streptavidin-peroxidase conjugate was added to each well of the plate. The plate was reacted at room temperature for 1 hour, washed, and 100 μl of TMB substrate solution was added to each well of the plate, followed by reaction for 30 minutes. The reaction was terminated by adding 100 μL of a stop solution to each well of the plate, and absorbance was measured at 450 nm. MPO activity means the amount of 1 μM […] at 25° C. for 1 minute. This was calculated as the amount of MPO contained in 1 mL of the colon tissue homogenate.
as §5

[6] = oral 1 mg/kg, 5 days, fixed-dose test (Table 6)
[7] = 300 mg/kg, dose-dependence test (Table 7)
[8] = 10 mg/kg, dose-dependence test (Table 7)

Cc1nc(NC(=O)c2cc3cc(Br)ccc3[nH]2)c(C)c(C)c1O [Compound X-07, 5-bromo-N-(5-hydroxy-3,4,6-trimethylpyridin-2-yl)-1H-indole-2-carboxamide]
inhibition at 1 µM [1]: 88.9% | inhibition at 1 µM [2]: 80.3% | Body weight recovery rate (%) [3, 6]: 72.9% | Intestinal weight recovery rate (%) [3, 6]: 94.9%

Cc1nc(NC(=O)c2sc3cc(F)ccc3c2Cl)c(C)c(C)c1O [Compound X-24, 3-chloro-6-fluoro-N-(5-hydroxy-3,4,6-trimethylpyridin-2-yl)benzo[b]thiophene-2-carboxamide]
IC50 ([1]; inhibition of adhesion by TNF-α): 230 nM | Body weight recovery rate (%) [3, 6]: 86.6% | Intestinal weight recovery rate (%) [3, 6]: 97.4% | Body weight recovery rate (%) ([4]; 1 mg/kg): 22.8% | Intestinal weight recovery rate (%) ([4]; 1 mg/kg): 58.1% | Body weight recovery rate (%) ([4]; 3 mg/kg): 73.3% | Intestinal weight recovery rate (%) ([4]; 3 mg/kg): 98.2%

O=C(O)c1cc(/N=N/c2ccc(S(=O)(=O)Nc3ccccn3)cc2)ccc1O [Sulfasalazine, reference compound]
Body weight recovery rate (%) [3, 7]: 86.6% | Intestinal weight recovery rate (%) [3, 7]: 69.6% | Morphological observation of colon (visual symptoms, adhesions, congestion) ([3]; after 5 days of drug administration, sulfasalazine 300 mg/kg, X-09 0.3-10 mg/kg): significantly suppressed | Intestinal weight recovery rate (%) ([3]; oral 300 mg/kg, 5 days, fixed-dose test (Table 6)): 69.6% | Body weight recovery rate (%) ([3]; oral 300 mg/kg, 5 days, fixed-dose test (Table 6), 300 mg/kg): 86.6% | Body weight recovery rate (%) ([3]; oral 300 mg/kg, 5 days, fixed-dose test (Table 6), listed as sulfasalazine, 300 mg/kg): 50.5% | Morphological observation of colon (length, macroscopic symptoms, adhesions, congestion) ([4]; DSS mouse, sulfasalazine 300 mg/kg, tofacitinib 30 mg/kg, FIG. 2C): significantly suppressed | Body weight recovery rate (%) ([4]; 300 mg/kg): 22.8% | Intestinal weight recovery rate (%) ([4]; 300 mg/kg): 66.9% | Intestinal weight recovery rate (%) ([4]; 300 mg/kg, listed as sulfasalazine): 67.3% | Body weight recovery rate (%) [5]: 65.9% | Intestinal weight recovery rate (%) [5]: 66.2%

C[C@]12C=CC(=O)C=C1CC[C@H]1[C@@H]3C[C@@H](O)[C@](O)(C(=O)CO)[C@@]3(C)C[C@H](O)[C@@]12F [Triamcinolone, reference compound]
Body weight recovery rate (%) [3, 8]: 70.0% | Intestinal weight recovery rate (%) [3, 8]: 84.5%

Cc1nc(NC(=O)c2sc3cc(F)ccc3c2Cl)c(C)c(C)c1OCC(=O)Nc1ccccc1 [XI-07, 3-chloro-6-fluoro-N-(3,4,6-trimethyl-5-(2-oxo-2-(phenylamino)ethoxy)pyridin-2-yl)benzo[b]thiophene-2-carboxamide]
inhibition at 1 µM [1]: 84.1% | inhibition at 1 µM [2]: 72.8% | Body weight recovery rate (%) [3, 6]: 82.9% | Intestinal weight recovery rate (%) [3, 6]: 91.0%

Cc1nc(NC(=O)c2sc3cc(F)ccc3c2Cl)c(C)c(C)c1OC(=O)N1CCOCC1 [XI-17, 6-(3-chloro-6-fluorobenzo[b]thiophene-2-carboxamido)-2,4,5-trimethylpyridin-3-yl morpholine-4-carboxylate]
inhibition at 1 µM [1]: ≥ 50% | inhibition at 1 µM [2]: 59.6% | Body weight recovery rate (%) [3, 6]: 60.2% | Intestinal weight recovery rate (%) [3, 6]: 79.8%

— patent publication US12398117B2, “Heteroarylamidopyridinol derivative and pharmaceutical composition comprising same as active ingredient for prevention or treatment of autoimmune disease” (INNOVO THERAPEUTICS INC., priority 2019, dated 2025)
